According to ChEMBL document CHEMBL5352402, “Discovery of novel non-nucleoside inhibitors with high potency and selectivity for DNA methyltransferase 3A” (Eur J Med Chem, 2022):
Calls of active or inactive are those of the source. The calls are words filed in the database; no cut-off is given here.

What was measured:
[1] = biological target: DNMT3A2/3L complex (Homo sapiens, UniProt Q9Y6K1); assay: (§1) Inhibition of N-terminal His-tagged human DNMT3A (623 to 912 residues)/N-terminal GST-tagged human DNMT3L (160 to 387 residues) co-expressed in baculovirus infected Sf9 cells assessed as DNA methylation using DNA oligonucleotide IDT-01 as substrate preincubated for 15 mins followed by substrate addition in presence of [3H]-SAM and measured after 4 hrs by radioactive methylation assay
[2] = tested on: A549; assay: Antiproliferative activity against human A549 cells assessed as inhibition of cell proliferation at 0.1 to 100 uM incubated upto 72 hrs by MTT assay; type: functional, cell-based; conditions: dose 0.1-100 µM
[3] = biological target: T1, Histone-lysine N-methyltransferase EHMT2 (Homo sapiens, UniProt Q96KQ7); assay: Inhibition of N-terminal GST-tagged human G9a expressed in baculovirus infected Sf9 cells using biotinylated histone H3 peptide as substrate preincubated for 15 mins followed by substrate addition in presence of SAM and measured after 60 mins by AlphaLISA assay
T1 sequence (Q96KQ7 whole entry): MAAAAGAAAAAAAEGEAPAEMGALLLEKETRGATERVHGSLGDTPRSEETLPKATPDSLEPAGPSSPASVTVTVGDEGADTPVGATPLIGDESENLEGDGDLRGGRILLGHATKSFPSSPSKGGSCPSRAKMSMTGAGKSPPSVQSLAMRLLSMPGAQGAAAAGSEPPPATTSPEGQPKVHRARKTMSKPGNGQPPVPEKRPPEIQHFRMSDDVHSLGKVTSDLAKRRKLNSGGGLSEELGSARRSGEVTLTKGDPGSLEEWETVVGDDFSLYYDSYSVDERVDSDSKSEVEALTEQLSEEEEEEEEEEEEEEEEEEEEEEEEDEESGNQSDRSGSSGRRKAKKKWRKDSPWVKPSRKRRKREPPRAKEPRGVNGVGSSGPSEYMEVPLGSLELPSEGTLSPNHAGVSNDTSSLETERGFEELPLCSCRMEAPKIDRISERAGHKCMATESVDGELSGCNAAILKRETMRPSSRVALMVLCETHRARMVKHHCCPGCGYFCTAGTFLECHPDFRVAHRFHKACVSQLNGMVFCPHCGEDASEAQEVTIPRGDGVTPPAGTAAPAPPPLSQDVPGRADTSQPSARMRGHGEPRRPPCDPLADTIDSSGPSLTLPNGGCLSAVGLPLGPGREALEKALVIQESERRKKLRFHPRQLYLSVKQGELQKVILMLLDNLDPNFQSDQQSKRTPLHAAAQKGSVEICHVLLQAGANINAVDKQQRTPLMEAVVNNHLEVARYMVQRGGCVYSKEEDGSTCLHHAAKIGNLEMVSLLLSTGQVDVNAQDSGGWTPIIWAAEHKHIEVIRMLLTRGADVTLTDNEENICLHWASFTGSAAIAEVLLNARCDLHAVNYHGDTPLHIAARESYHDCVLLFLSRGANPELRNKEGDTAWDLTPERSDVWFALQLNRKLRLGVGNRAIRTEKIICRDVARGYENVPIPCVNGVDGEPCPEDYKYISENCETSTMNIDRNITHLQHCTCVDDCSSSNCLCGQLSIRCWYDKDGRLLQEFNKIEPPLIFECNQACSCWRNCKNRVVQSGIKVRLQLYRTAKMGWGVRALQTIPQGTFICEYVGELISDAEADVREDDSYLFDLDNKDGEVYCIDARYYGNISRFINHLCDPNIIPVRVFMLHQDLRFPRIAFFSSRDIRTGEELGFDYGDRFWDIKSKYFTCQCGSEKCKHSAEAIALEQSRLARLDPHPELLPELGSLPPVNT

[4] = tested on: DU-145; assay: Antiproliferative activity against human DU-145 cells assessed as inhibition of cell proliferation incubated for 72 hrs by MTT assay; type: functional, cell-based; conditions: DU-145, 72 h
[5] = tested on: K562; assay: Antiproliferative activity against human K562 cells assessed as inhibition of cell proliferation at 0.1 to 100 uM incubated upto 72 hrs by MTT assay; type: functional, cell-based; conditions: dose 0.1-100 µM
[6] = tested on: U-937; assay: cells; conditions: Homo sapiens, U-937, 72 h
Description: Antiproliferative activity against human U-937 cells assessed as inhibition of cell proliferation incubated for 72 hrs by MTT assay

[7] = tested on: K562; assay: Antiproliferative activity against human K562 cells assessed as inhibition of cell proliferation at 100 uM incubated for 24 to 72 hrs by MTT assay; type: functional, cell-based; conditions: time 24-72 hrs, TDE = time-dependent effect
[8] = biological target: T2, DNMT3A2/3L complex (Homo sapiens) (UniProt Q9Y6K1+Q9UJW3); assay: as §1, with “as substrate at 10 uM preincubated for” for “as substrate preincubated for”; conditions: time 255.0 min
[9] = tested on: HCT-116; assay: Antiproliferative activity against human HCT-116 cells assessed as inhibition of cell proliferation at 100 uM incubated for 24 to 72 hrs by MTT assay; type: functional, cell-based; conditions: time 24-72 hrs, TDE = time-dependent effect
[10] = tested on: THP-1; assay: Antiproliferative activity against human THP-1 cells assessed as inhibition of cell proliferation at 100 uM incubated for 24 to 72 hrs by MTT assay; type: functional, cell-based; conditions: time 24-72 hrs, TDE = time-dependent effect
[11] = biological target: DNMT3B (Homo sapiens, UniProt Q9UBC3); assay: as §1, with “DNMT3B (564” for “DNMT3A (623”, “853” for “912”
[12] = tested on: A549; assay: cells; conditions: Homo sapiens, A549, 72 h
Description: Antiproliferative activity against human A549 cells assessed as inhibition of cell proliferation incubated for 72 hrs by MTT assay

[13] = biological target: DNA (cytosine-5)-methyltransferase 1 (Homo sapiens, UniProt P26358); assay: Inhibition of N-terminal GST-tagged full-length recombinant human DNMT1 assessed as DNA methylation using pdI-pdC DNA as substrate preincubated for 15 mins followed by substrate addition in presence of [3H]-SAM and measured after 150 mins by radioactive methylation assay
[14] = tested on: DU-145; assay: Antiproliferative activity against human DU-145 cells assessed as inhibition of cell proliferation at 100 uM incubated for 24 to 72 hrs by MTT assay; type: functional, cell-based; conditions: time 24-72 hrs, TDE = time-dependent effect
[15] = tested on: DU-145; assay: Antiproliferative activity against human DU-145 cells assessed as inhibition of cell proliferation at 0.1 to 100 uM incubated upto 72 hrs by MTT assay; type: functional, cell-based; conditions: dose 0.1-100 µM
[16] = tested on: HCT-116; assay: Antiproliferative activity against human HCT-116 cells assessed as inhibition of cell proliferation at 0.1 to 100 uM incubated upto 72 hrs by MTT assay; type: functional, cell-based; conditions: dose 0.1-100 µM
[17] = Cytotoxicity activity against human PBMC cells assessed as inhibition of cell proliferation incubated for 72 hrs by MTT assay; type: toxicity, cell-based
[18] = tested on: K562; assay: Antiproliferative activity against human K562 cells assessed as inhibition of cell proliferation incubated for 72 hrs by MTT assay; type: functional, cell-based; conditions: K562, 72 h
[19] = tested on: THP-1; assay: Antiproliferative activity against human THP-1 cells assessed as inhibition of cell proliferation at 0.1 to 100 uM incubated upto 72 hrs by MTT assay; type: functional, cell-based; conditions: dose 0.1-100 µM
[20] = tested on: THP-1; assay: Antiproliferative activity against human THP-1 cells assessed as inhibition of cell proliferation incubated for 72 hrs by MTT assay; type: functional, cell-based; conditions: THP-1, 72 h
[21] = biological target: T2, DNMT3A2/3L complex (Homo sapiens); assay: as §1, with “as substrate at 100 uM preincubated for” for “as substrate preincubated for”; conditions: time 255.0 min
[22] = tested on: U-937; assay: Antiproliferative activity against human U-937 cells assessed as inhibition of cell proliferation at 100 uM incubated for 24 to 72 hrs by MTT assay; type: functional, cell-based; conditions: time 24-72 hrs, TDE = time-dependent effect
[23] = tested on: HCT-116; assay: cells; conditions: Homo sapiens, HCT-116, 72 h
Description: Antiproliferative activity against human HCT-116 cells assessed as inhibition of cell proliferation incubated for 72 hrs by MTT assay

[24] = tested on: A549; assay: Antiproliferative activity against human A549 cells assessed as inhibition of cell proliferation at 100 uM incubated for 24 to 72 hrs by MTT assay; type: functional, cell-based; conditions: time 24-72 hrs, TDE = time-dependent effect
[25] = tested on: U-937; assay: Antiproliferative activity against human U-937 cells assessed as inhibition of cell proliferation at 0.1 to 100 uM incubated upto 72 hrs by MTT assay; type: functional, cell-based; conditions: dose 0.1-100 µM
[26] = biological target: DNA (cytosine-5)-methyltransferase 3A (Homo sapiens) (UniProt Q9Y6K1); assay: Inhibition of DNMT3A in human HCT-116 cells assessed as increase in p53 protein level at 1 uM incubated for 72 hrs by Western blot analysis; type: cell-based
[27] = biological target: DNA (cytosine-5)-methyltransferase 3A (Homo sapiens) (UniProt Q9Y6K1); assay: Inhibition of DNMT3A in human HCT-116 cells assessed as downregulation of DNMT3A protein level at 1 uM incubated for 72 hrs by Western blot analysis; type: cell-based
[28] = biological target: T2, DNMT3A2/3L complex (Homo sapiens); assay: Competitive inhibition of N-terminal His-tagged human DNMT3A (623 to 912 residues)/N-terminal GST-tagged human DNMT3L (160 to 387 residues) co-expressed in baculovirus infected Sf9 cells assessed as DNA methylation using varying concentration of oligonucleotide IDT-01 as substrate preincubated for …; conditions: time 255.0 min

Chain of DNMT3A2/3L complex (Q9Y6K1 whole entry, looked up, the tested form may be a part, one chain of several): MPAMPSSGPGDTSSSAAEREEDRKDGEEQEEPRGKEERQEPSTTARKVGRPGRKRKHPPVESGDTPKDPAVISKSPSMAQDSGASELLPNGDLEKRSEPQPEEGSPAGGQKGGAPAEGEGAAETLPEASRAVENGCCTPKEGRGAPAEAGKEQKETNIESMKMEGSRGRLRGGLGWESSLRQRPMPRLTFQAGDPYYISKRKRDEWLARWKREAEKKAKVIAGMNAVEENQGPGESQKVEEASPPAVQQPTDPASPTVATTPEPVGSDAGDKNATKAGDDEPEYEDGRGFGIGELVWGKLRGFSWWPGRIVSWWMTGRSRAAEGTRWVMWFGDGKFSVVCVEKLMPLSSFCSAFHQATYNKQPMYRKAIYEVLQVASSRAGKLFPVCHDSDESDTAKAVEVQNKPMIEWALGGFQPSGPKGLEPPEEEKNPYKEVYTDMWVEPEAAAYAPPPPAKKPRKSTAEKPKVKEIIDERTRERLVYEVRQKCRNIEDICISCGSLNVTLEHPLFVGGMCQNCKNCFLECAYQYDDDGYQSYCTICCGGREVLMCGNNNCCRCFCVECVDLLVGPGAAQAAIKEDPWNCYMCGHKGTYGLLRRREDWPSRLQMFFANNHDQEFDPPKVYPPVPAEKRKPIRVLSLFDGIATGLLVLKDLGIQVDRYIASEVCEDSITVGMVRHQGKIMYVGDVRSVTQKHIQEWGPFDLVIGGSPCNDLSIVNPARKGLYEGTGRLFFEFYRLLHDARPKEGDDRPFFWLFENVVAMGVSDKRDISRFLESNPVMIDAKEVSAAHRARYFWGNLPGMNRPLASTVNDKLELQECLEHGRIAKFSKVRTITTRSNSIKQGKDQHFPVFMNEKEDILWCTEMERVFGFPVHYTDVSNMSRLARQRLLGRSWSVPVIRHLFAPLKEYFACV
Chain of DNA (cytosine-5)-methyltransferase 3A (Homo sapiens) (Q9Y6K1 whole entry, looked up, the tested form may be a part): as the sequence (Q9Y6K1 whole entry, looked up, the tested form may be a part, one chain of several) above
Chain of DNA (cytosine-5)-methyltransferase 1 (P26358 whole entry): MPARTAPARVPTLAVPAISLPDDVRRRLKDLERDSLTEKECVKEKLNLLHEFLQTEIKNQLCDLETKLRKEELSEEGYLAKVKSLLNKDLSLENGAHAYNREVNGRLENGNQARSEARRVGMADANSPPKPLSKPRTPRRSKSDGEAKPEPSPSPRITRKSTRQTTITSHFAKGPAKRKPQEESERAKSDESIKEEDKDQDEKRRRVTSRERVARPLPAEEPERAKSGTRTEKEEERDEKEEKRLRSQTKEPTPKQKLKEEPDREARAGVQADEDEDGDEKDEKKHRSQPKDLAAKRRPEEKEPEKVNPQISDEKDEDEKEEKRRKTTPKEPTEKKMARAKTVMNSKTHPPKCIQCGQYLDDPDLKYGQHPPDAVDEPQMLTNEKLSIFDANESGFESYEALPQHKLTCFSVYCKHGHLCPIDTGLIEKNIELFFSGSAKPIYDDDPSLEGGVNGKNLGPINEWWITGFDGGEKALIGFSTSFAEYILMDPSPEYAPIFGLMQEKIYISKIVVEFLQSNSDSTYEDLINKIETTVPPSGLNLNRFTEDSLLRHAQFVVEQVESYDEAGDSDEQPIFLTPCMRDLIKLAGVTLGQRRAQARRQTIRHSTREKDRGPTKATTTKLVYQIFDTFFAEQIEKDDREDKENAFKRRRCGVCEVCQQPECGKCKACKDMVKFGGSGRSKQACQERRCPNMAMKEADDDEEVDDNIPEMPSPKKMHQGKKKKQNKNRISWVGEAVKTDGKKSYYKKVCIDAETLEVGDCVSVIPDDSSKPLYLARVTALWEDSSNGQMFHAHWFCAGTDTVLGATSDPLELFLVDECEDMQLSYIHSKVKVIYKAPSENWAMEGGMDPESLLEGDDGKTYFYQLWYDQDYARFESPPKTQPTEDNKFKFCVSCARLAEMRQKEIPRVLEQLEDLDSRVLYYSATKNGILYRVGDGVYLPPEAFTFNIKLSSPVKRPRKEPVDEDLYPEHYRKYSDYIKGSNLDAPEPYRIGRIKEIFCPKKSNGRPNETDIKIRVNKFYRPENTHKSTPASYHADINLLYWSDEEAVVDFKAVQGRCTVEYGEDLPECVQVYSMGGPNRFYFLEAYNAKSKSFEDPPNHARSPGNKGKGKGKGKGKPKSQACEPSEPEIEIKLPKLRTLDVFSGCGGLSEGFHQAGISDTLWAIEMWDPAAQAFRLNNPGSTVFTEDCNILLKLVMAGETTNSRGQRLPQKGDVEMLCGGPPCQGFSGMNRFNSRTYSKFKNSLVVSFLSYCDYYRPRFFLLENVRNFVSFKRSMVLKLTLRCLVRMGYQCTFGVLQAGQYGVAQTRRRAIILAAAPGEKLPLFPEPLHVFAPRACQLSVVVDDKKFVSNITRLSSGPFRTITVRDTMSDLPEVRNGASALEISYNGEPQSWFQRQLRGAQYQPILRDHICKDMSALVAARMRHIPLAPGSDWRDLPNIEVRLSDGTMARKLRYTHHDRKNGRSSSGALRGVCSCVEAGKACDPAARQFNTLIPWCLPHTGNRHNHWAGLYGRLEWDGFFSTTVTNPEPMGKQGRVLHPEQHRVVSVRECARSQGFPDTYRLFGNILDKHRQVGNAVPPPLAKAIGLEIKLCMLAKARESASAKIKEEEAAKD
T2 sequence (Q9UJW3 whole entry, looked up): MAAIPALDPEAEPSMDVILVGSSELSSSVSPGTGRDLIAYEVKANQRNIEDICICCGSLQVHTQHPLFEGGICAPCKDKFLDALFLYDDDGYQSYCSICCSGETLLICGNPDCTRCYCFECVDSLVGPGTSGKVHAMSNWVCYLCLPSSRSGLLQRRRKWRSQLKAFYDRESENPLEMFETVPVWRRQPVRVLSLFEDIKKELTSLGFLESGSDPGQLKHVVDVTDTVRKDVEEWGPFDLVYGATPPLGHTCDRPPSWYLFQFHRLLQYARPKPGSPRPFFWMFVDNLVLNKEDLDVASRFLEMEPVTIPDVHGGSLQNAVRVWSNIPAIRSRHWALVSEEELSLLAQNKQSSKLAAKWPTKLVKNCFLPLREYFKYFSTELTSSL
T2 sequence (Q9Y6K1 whole entry, looked up): as the sequence (Q9Y6K1 whole entry, looked up, the tested form may be a part, one chain of several) above

| SMILES | Activity [2] | IC50 [3] [µM] | IC50 [4] [µM] | Activity [5] | IC50 [6] [µM] | Activity [7] | inhibition [8] [%] | Activity [9] | Activity [10] | IC50 [11] [µM] | IC50 [12] [µM] | IC50 [13] [µM] | Activity [14] | Activity [15] | Activity [16] | IC50 at 72 h [17] [µM] | IC50 [18] [µM] | IC50 [20] [µM] | inhibition [21] [%] | IC50 [23] [µM] | other results |
| --- | --- | --- | --- | --- | --- | --- | --- | --- | --- | --- | --- | --- | --- | --- | --- | --- | --- | --- | --- | --- | --- |
| Cc1oc2ncn(CCCN3CCCC3)c(=O)c2c1C(=O)Nc1ccc(S(N)(=O)=O)nc1 | Dose-Dependent Effect | 308 | 2.8 | Dose-Dependent Effect | 4.2 | Tde | 69.6 | Tde | Tde | 120 | 15.7 | 9.6 | Tde | Dose-Dependent Effect | Dose-Dependent Effect | 161 | 6.5 | 3.3 | 94.1 | 2.1 | IC50 [1]: 1.8 µM; Activity [19]: Dose-Dependent Effect; Activity [22]: Tde; Activity [24]: Tde; Activity [25]: Dose-Dependent Effect |
| Cc1sc2ncn(CCN3CCOCC3)c(=O)c2c1C(=O)Nc1ccc(S(N)(=O)=O)nc1 |  |  |  |  |  |  | 8.3 |  |  |  |  |  |  |  |  |  |  |  | 40.4 |  | IC50 [1]: > 100 µM |
| Cc1oc2ncn(CCN(C)C)c(=O)c2c1C(=O)Nc1ccc(S(N)(=O)=O)nc1 | Dose-Dependent Effect | > 500 | 3.7 | Dose-Dependent Effect | 2.3 | Tde | 74.7 | Tde | Tde | 220 | 4.6 | 20.9 | Tde | Dose-Dependent Effect | Dose-Dependent Effect | 131 | 1.6 | 1.8 | 81.8 | 0.5 | p53 protein level increase (active/not active) [26]: Active; inhibition [27]: Active; Activity [19]: Dose-Dependent Effect; Activity [22]: Tde; Activity [24]: Tde; Activity [25]: Dose-Dependent Effect |
| Cc1oc2ncn(CCCN3CCCCC3)c(=O)c2c1C(=O)Nc1ccc(S(N)(=O)=O)nc1 | Dose-Dependent Effect | 14.9 | 4.1 | Dose-Dependent Effect | 3.5 | Tde | 66 | Tde | Tde | 64.7 | 8.5 | 15.9 | Tde | Dose-Dependent Effect | Dose-Dependent Effect | 144 | 5.4 | 4.2 | 89.8 | 1.6 | IC50 [1]: 1.3 µM; Activity [19]: Dose-Dependent Effect; Activity [22]: Tde; Activity [24]: Tde; Activity [25]: Dose-Dependent Effect |
| Cc1cc(Nc2ccc(NC(=O)c3ccc(Nc4ccnc5ccccc45)cc3)cc2)nc(N)n1 |  |  | 3.4 |  | 0.7 |  |  |  |  |  | 8.9 |  |  |  |  | 2 | 0.6 | 0.7 |  | 0.9 | p53 protein level increase (active/not active) [26]: inactive; inhibition [27]: inactive |
| Cc1oc2ncn(Cc3cccnc3)c(=O)c2c1C(=O)Nc1ccc(S(N)(=O)=O)nc1 |  |  |  |  |  |  | 11.3 |  |  |  |  |  |  |  |  |  |  |  | 48 |  | IC50 [1]: > 100 µM |
| Cc1oc2ncn(CCN3CCCCC3)c(=O)c2c1C(=O)Nc1ccc(S(N)(=O)=O)nc1 | Dose-Dependent Effect | > 500 | 5.3 | Dose-Dependent Effect | 1.8 | Tde | 70.5 | Tde | Tde | > 100 | 11.1 | 51.2 | Tde | Dose-Dependent Effect | Dose-Dependent Effect | 137 | 6.1 | 2.2 | 77.7 | 0.5 | p53 protein level increase (active/not active) [26]: Active; Activity [19]: Dose-Dependent Effect; Activity [22]: Tde; Activity [24]: Tde; Activity [25]: Dose-Dependent Effect |
| Cc1oc2ncn(CCN3CCCC3)c(=O)c2c1C(=O)Nc1ccc(S(N)(=O)=O)nc1 | Dose-Dependent Effect | > 500 | 1.7 | Dose-Dependent Effect | 0.7 | Tde | 83.8 | Tde | Tde | 105 | 2.1 | 13 | Tde | Dose-Dependent Effect | Dose-Dependent Effect | 91 | 0.5 | 0.7 | 93.1 | 0.3 | p53 protein level increase (active/not active) [26]: Active; inhibition [27]: Active; Activity [19]: Dose-Dependent Effect; Activity [22]: Tde; inhibition [28]: Active; Activity [24]: Tde; Activity [25]: Dose-Dependent Effect |
